This passage reports IC50 results from BindingDB's records for doi:10.1021/jm00090a003 (Universit&#233, 1992).

The target in assay [1] is Calcitonin gene-related peptide (CGRP) receptor binding sites. The assay can be described thus: ChEBML_42602.
Assay [2] deals with Calcitonin gene-related peptide type 1 receptor (Cavia porcellus). Nature of the assay: Binding affinity against [125I]-hCalcitonin gene-related peptide type receptor binding sites in guinea pig atrium membrane.

pIC50: −log10 of the molar value. Where “and” joins values, the source holds several entries; their conditions need not be identical. Equal values may be shown once.

By pIC50 is commonly meant −log10 of the IC50, conventionally taken in molar units.

In the case of `CC(C)C[C@H](NC(=O)CNC(=O)[C@H](C)NC(=O)[C@H](CC(C)C)NC(=O)[C@H](CCCN=C(N)N)NC(=O)[C@@H](N)Cc1c[nH]cn1)C(=O)N[C@@H](CC(C)C)C(=O)N[C@@H](CO)C(=O)N[C@@H](CCCN=C(N)N)C(=O)N[C@@H](CO)C(=O)NCC(=O)NCC(=O)N[C@H](C(=O)N[C@H](C(=O)N[C@@H](CCCCN)C(=O)N[C@@H](CC(N)=O)C(=O)N[C@@H](CC(N)=O)C(=O)N[C@@H](Cc1ccccc1)C(=O)N[C@H](C(=O)N1CCC[C@H]1C(=O)N[C@H](C(=O)N[C@@H](CC(N)=O)C(=O)N[C@H](C(=O)NCC(=O)N[C@@H](CO)C(=O)N[C@@H](CCCCN)C(=O)N[C@@H](C)C(=O)N[C@@H](Cc1ccccc1)C(N)=O)C(C)C)[C@@H](C)O)C(C)C)C(C)C)C(C)C`, the pIC50 in assay [1] was 8.05.
Consider H-VTHALAGLLSRSGGVVKNNFVPTNVGSKAF-NH2, for which, in assay [2], the pIC50 is 7.66 and 7.60.
Regarding H-VTHRAAGLLSRSGGVVKNNFVPTNVGSKAF-NH2, the figures for the pIC50 in assay [1] and in assay [2] were 7.84 and 7.96, respectively.
